Results taken from the supplement of paper PMC10307832.

Columns and labels:
Experiment in all cases: relative viability (nuclei count vs DMSO), 5 days (fraction); higher = more cells survive
Doramapimod + Phenformin = compound: Cc1ccc(-n2nc(C(C)(C)C)cc2NC(=O)Nc2ccc(OCCN3CCOCC3)c3ccccc23)cc1 [Doramapimod] + N=C(N)NC(=N)NCCc1ccccc1 [Phenformin] (partner 250 µM)
Summary of the method: (§1)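 Relative viability was taken as the ratio of nuclei in treated wells to nuclei in vehicle wells. Lung cancer cell lines in 1536-well plates received compounds by pin tool one day after seeding, either one drug alone or a fixed anchor-drug dose plus five library-drug doses (not always all listed) in √10 steps. Nuclei were counted on 4× images after 5 days of treatment, and values are medians of duplicate plates.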

RAF265 + Tozasertib = compound: Cn1c(Nc2ccc(C(F)(F)F)cc2)nc2cc(Oc3ccnc(-c4ncc(C(F)(F)F)[nH]4)c3)ccc21 [RAF265] + Cc1cc(Nc2cc(N3CCN(C)CC3)nc(Sc3ccc(NC(=O)C4CC4)cc3)n2)n[nH]1 [Tozasertib] (partner 0.1 µM)
Summary of the method: as §1

IPA-3 + Phenformin = compound: C1=CC=C2C(=C1)C=CC(=C2SSC3=C(C=CC4=CC=CC=C43)O)O [IPA-3] + N=C(N)NC(=N)NCCc1ccccc1 [Phenformin] (partner 250 µM)
Summary of the method: as §1

Doramapimod + Crizotinib = compound: Cc1ccc(-n2nc(C(C)(C)C)cc2NC(=O)Nc2ccc(OCCN3CCOCC3)c3ccccc23)cc1 [Doramapimod] + C[C@@H](Oc1cc(-c2cnn(C3CCNCC3)c2)cnc1N)c1c(Cl)ccc(F)c1Cl [Crizotinib] (partner 1 µM)
Summary of the method: as §1

Cell Line | relative viability (Doramapimod + Phenformin; first compound 0.02 µM) | relative viability (Doramapimod + Phenformin; first compound 0.06325 µM) | relative viability (Doramapimod + Phenformin; first compound 0.2 µM) | relative viability (Doramapimod + Phenformin; first compound 0.6325 µM) | relative viability (Doramapimod + Phenformin; first compound 2 µM) | relative viability (RAF265 + Tozasertib; first compound 0.01 µM) | relative viability (RAF265 + Tozasertib; first compound 0.03162 µM) | relative viability (RAF265 + Tozasertib; first compound 0.1 µM) | relative viability (RAF265 + Tozasertib; first compound 0.3162 µM) | relative viability (RAF265 + Tozasertib; first compound 1 µM) | relative viability (IPA-3 + Phenformin; first compound 0.2 µM) | relative viability (IPA-3 + Phenformin; first compound 0.6325 µM) | relative viability (IPA-3 + Phenformin; first compound 2 µM) | relative viability (IPA-3 + Phenformin; first compound 6.325 µM) | relative viability (IPA-3 + Phenformin; first compound 20 µM) | relative viability (Doramapimod + Crizotinib; first compound 0.02 µM) | relative viability (Doramapimod + Crizotinib; first compound 0.06325 µM) | relative viability (Doramapimod + Crizotinib; first compound 0.2 µM) | relative viability (Doramapimod + Crizotinib; first compound 0.6325 µM) | relative viability (Doramapimod + Crizotinib; first compound 2 µM)
SK-MES-1 | 0.634 | 0.648 | 0.648 | 0.628 | 0.568 | 0.853 | 0.603 | 0.399 | 0.348 | 0.275 | 0.635 | 0.625 | 0.667 | 0.573 | 0.533 | 1.01 | 0.977 | 0.933 | 0.917 | 0.887
NCI-H2405 | 0.402 | 0.374 | 0.335 | 0.423 | 0.316 | 0.798 | 0.736 | 0.876 | 0.853 | 0.458 | 0.437 | 0.386 | 0.418 | 0.389 | 0.489 | 0.822 | 0.826 | 0.877 | 0.996 | 0.798
LCLC-103H | 0.322 | 0.345 | 0.298 | 0.322 | 0.32 | 0.472 | 0.48 | 0.42 | 0.424 | 0.227 | 0.299 | 0.344 | 0.365 | 0.354 | 0.372 | 1.05 | 1.06 | 1.08 | 1.06 | 0.944
NCI-H460 | 0.51 | 0.54 | 0.581 | 0.595 | 0.454 | 0.446 | 0.468 | 0.628 | 0.445 | 0.293 | 0.835 | 0.501 | 0.495 | 0.448 | 0.446 | 0.807 | 0.806 | 0.986 | 0.846 | 0.794
NCI-H1755 | 0.577 | 0.596 | 0.6 | 0.541 | 0.559 | 0.556 | 0.634 | 0.598 | 0.552 | 0.402 | 0.675 | 0.582 | 0.622 | 0.612 | 0.557 | 0.886 | 0.905 | 0.788 | 0.768 | 0.833
NCI-H358 | 0.301 | 0.314 | 0.305 | 0.385 | 0.356 | 0.11 | 0.0915 | 0.0883 | 0.0935 | 0.0863 | 0.433 | 0.355 | 0.306 | 0.359 | 0.278 | 0.531 | 0.614 | 0.552 | 0.702 | 0.509
NCI-H1734 | 0.332 | 0.344 | 0.344 | 0.355 | 0.289 | 0.306 | 0.276 | 0.255 | 0.232 | 0.215 | 0.394 | 0.371 | 0.371 | 0.412 | 0.368 | 0.665 | 0.639 | 0.589 | 0.659 | 0.495
EPLC-272H | 0.294 | 0.243 | 0.356 | 0.291 | 0.274 | 0.218 | 0.328 | 0.275 | 0.257 | 0.199 | 0.306 | 0.27 | 0.346 | 0.405 | 0.397 | 0.942 | 0.975 | 1.17 | 0.974 | 0.972
NCI-H2126 | 0.527 | 0.526 | 0.505 | 0.496 | 0.489 | 0.905 | 0.844 | 0.826 | 0.881 | 0.607 | 0.57 | 0.517 | 0.506 | 0.516 | 0.629 | 0.966 | 1.06 | 1.06 | 1.11 | 1.05
